Experimental data published in PubChem BioAssay (NCI).
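Dose response: 5 concentrations. Exposure: 48 h. Format: 96-well plates. Endpoint: linear interpolation; highest concentration if not reached. GI50 is the concentration that inhibits growth by half. TGI: concentration producing complete growth inhibition.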

How the values were obtained:
Assay in all cases: DTP human tumour cell line panel, 48 h
786-0 renal = test system: 786-0 renal
HOP-62 NSCLC = test system: HOP-62 NSCLC
HT29 colon = test system: HT29 colon
MALME-3M melanoma = test system: MALME-3M melanoma
OVCAR-4 ovarian = test system: OVCAR-4 ovarian
RPMI-8226 leukemia = test system: RPMI-8226 leukemia
SNB-19 CNS = test system: SNB-19 CNS
TK-10 renal = test system: TK-10 renal

`Cc1cc(C)c(O)c(CN(C)Cc2cc(Cl)cc(Cl)c2O)c1` gave a GI50 (786-0 renal) of 9.38 µM, a TGI (786-0 renal) of 28.6 µM and a GI50 (HOP-62 NSCLC) of 5.46 µM. For the same molecule, the TGI (HOP-62 NSCLC) was 18.3 µM, the GI50 (HT29 colon) was 5.1 µM and the TGI (HT29 colon) was 17.4 µM. It also gave a GI50 (MALME-3M melanoma) of 6.13 µM, a TGI (MALME-3M melanoma) of 20.6 µM and a GI50 (OVCAR-4 ovarian) of 2.62 µM. It also gave a TGI (OVCAR-4 ovarian) of 10.6 µM, a GI50 (RPMI-8226 leukemia) of 3.12 µM and a TGI (RPMI-8226 leukemia) of 23.2 µM. It also gave a GI50 (SNB-19 CNS) of 4.82 µM, a TGI (SNB-19 CNS) of 20.8 µM and a GI50 (TK-10 renal) of 4.95 µM. It also gave a TGI (TK-10 renal) of 25.6 µM.
For `O=C(N/N=C/c1ccccc1O)C(=O)Nc1ccc(F)cc1`, the GI50 (786-0 renal) was 6.96 µM, the TGI (786-0 renal) was > 100 µM and the GI50 (HOP-62 NSCLC) was 10.7 µM. The TGI (HOP-62 NSCLC) was > 100 µM, the GI50 (HT29 colon) was 8.86 µM and the TGI (HT29 colon) was > 100 µM. For the same molecule, the GI50 (MALME-3M melanoma) was 10.7 µM, the TGI (MALME-3M melanoma) was 82.7 µM and the GI50 (OVCAR-4 ovarian) was 2.53 µM. The TGI (OVCAR-4 ovarian) was > 100 µM, the GI50 (RPMI-8226 leukemia) was 7.9 µM and the TGI (RPMI-8226 leukemia) was > 100 µM. The GI50 (SNB-19 CNS) was 4.91 µM, the TGI (SNB-19 CNS) was > 100 µM and the GI50 (TK-10 renal) was 6.12 µM. The TGI (TK-10 renal) was > 100 µM.
`CN1CCN(Cc2ccc(NC(=O)c3ccc(C#Cc4c(N)ncc5ccc(F)cc45)cc3)cc2C(F)(F)F)CC1` showed a GI50 (786-0 renal) of 0.924 µM, a TGI (786-0 renal) of 1.73 µM and a GI50 (HOP-62 NSCLC) of 0.883 µM. For the same molecule, the TGI (HOP-62 NSCLC) was 1.59 µM, the GI50 (HT29 colon) was 0.876 µM and the TGI (HT29 colon) was 1.86 µM. For the same molecule, the GI50 (MALME-3M melanoma) was 0.945 µM, the TGI (MALME-3M melanoma) was 1.8 µM and the GI50 (OVCAR-4 ovarian) was 1.48 µM. For the same molecule, the TGI (OVCAR-4 ovarian) was 5.83 µM, the GI50 (RPMI-8226 leukemia) was 1.08 µM and the TGI (RPMI-8226 leukemia) was 2.48 µM. For the same molecule, the GI50 (SNB-19 CNS) was 1.09 µM, the TGI (SNB-19 CNS) was 1.91 µM and the GI50 (TK-10 renal) was 0.977 µM. The TGI (TK-10 renal) was 1.79 µM.
In the case of `O=C(O)c1ccc(N/C=C2\C(=O)c3ccccc3OC2O)cc1O` (configuration not stated), the GI50 (786-0 renal) is reported as 28.5 µg/mL, the TGI (786-0 renal) is reported as 52.3 µg/mL and the GI50 (HOP-62 NSCLC) is reported as 24.8 µg/mL. The TGI (HOP-62 NSCLC) was 63.7 µg/mL, the GI50 (HT29 colon) was 29.7 µg/mL and the TGI (HT29 colon) was 83.2 µg/mL. For the same molecule, the GI50 (MALME-3M melanoma) was 10 µg/mL, the TGI (MALME-3M melanoma) was 38.9 µg/mL and the GI50 (OVCAR-4 ovarian) was 20.6 µg/mL. The TGI (OVCAR-4 ovarian) was > 150 µg/mL, the GI50 (RPMI-8226 leukemia) was 2.45 µg/mL and the TGI (RPMI-8226 leukemia) was 8.67 µg/mL. The GI50 (SNB-19 CNS) was 18.4 µg/mL, the TGI (SNB-19 CNS) was 72.4 µg/mL and the GI50 (TK-10 renal) was 36 µg/mL. The TGI (TK-10 renal) was 106 µg/mL.
Work on `COc1ccc(Cl)cc1NC(=O)C(Br)C(Br)C(=O)O` (configuration not stated) yielded a GI50 (786-0 renal) of 21.7 µM, a TGI (786-0 renal) of 47.7 µM and a GI50 (HOP-62 NSCLC) of 4.79 µM. For the same molecule, the TGI (HOP-62 NSCLC) was 21.3 µM, the GI50 (HT29 colon) was 25.6 µM and the TGI (HT29 colon) was > 68.3 µM. The GI50 (MALME-3M melanoma) was 9.88 µM, the TGI (MALME-3M melanoma) was 28.8 µM and the GI50 (OVCAR-4 ovarian) was 6.36 µM. For the same molecule, the TGI (OVCAR-4 ovarian) was 60.6 µM, the GI50 (RPMI-8226 leukemia) was 17.7 µM and the TGI (RPMI-8226 leukemia) was > 91.7 µM. For the same molecule, the GI50 (SNB-19 CNS) was 27.9 µM, the TGI (SNB-19 CNS) was > 68.7 µM and the GI50 (TK-10 renal) was 6.59 µM. It also gave a TGI (TK-10 renal) of 28 µM.
In the case of `S=C1Nc2ccc(Cl)cc2C2(c3ccccc3)N3CCN=C3NN12` (configuration not stated), the GI50 (786-0 renal) is reported as 38.3 µM, the TGI (786-0 renal) is reported as > 100 µM and the GI50 (HOP-62 NSCLC) is reported as 33.3 µM. The TGI (HOP-62 NSCLC) was > 100 µM, the GI50 (HT29 colon) was 28.1 µM and the TGI (HT29 colon) was > 100 µM. For the same molecule, the GI50 (MALME-3M melanoma) was 23.5 µM, the TGI (MALME-3M melanoma) was 78.4 µM and the GI50 (OVCAR-4 ovarian) was 26.1 µM. For the same molecule, the TGI (OVCAR-4 ovarian) was > 100 µM, the GI50 (RPMI-8226 leukemia) was 21.7 µM and the TGI (RPMI-8226 leukemia) was 57.3 µM. For the same molecule, the GI50 (SNB-19 CNS) was 36.9 µM, the TGI (SNB-19 CNS) was > 100 µM and the GI50 (TK-10 renal) was 35.1 µM. The TGI (TK-10 renal) was > 100 µM.
Molecule `O=C(N/N=C/c1ccc([N+](=O)[O-])cc1)c1ccc2nc(-c3ccc(Cl)cc3)[nH]c2c1` has a GI50 (786-0 renal) of 3.92 µM, a TGI (786-0 renal) of 15.7 µM and a GI50 (HOP-62 NSCLC) of 6.42 µM. For the same molecule, the TGI (HOP-62 NSCLC) was 30.8 µM, the GI50 (HT29 colon) was 3.02 µM and the TGI (HT29 colon) was > 100 µM. It also gave a GI50 (MALME-3M melanoma) of 1.48 µM, a TGI (MALME-3M melanoma) of 5 µM and a GI50 (OVCAR-4 ovarian) of 2.75 µM. The TGI (OVCAR-4 ovarian) was 8.64 µM, the GI50 (RPMI-8226 leukemia) was 0.461 µM and the TGI (RPMI-8226 leukemia) was 2.41 µM. It also gave a GI50 (SNB-19 CNS) of 7.48 µM, a TGI (SNB-19 CNS) of 32.4 µM and a GI50 (TK-10 renal) of 8.99 µM. It also gave a TGI (TK-10 renal) of 42.3 µM.
